# Test results from patent US12209112B2, “Methods of preventing or treating diseases, conditions, or disorders associated with chemotherapy” (The Chinese University of Hong Kong, priority 2022, dated 2025).
# Read-outs that look alike come from different tables or passages of the source.
# How the values were obtained:
# C57BL/6J male mice [1] = format: in vivo, mouse
# Experimental: Recombinant human GDF15/MIC-1 protein (CHO-derived) was purchased from PeproTech Inc. (Cranbury, USA) and described in Example 1. […] For in vitro studies, solid lyophilized powder of these two drugs were solubilized at the recommended concentrations in sterile water, and separate aliquots were made and frozen until thawing prior to addition to cell cultures. For in vivo studies, all agents were dissolved in […] normal saline according to the required concentrations (doxorubicin, 5 mg/kg; GDF15, 0.5 mg/kg; dexrazoxane, […]), and the final volume of each intraperitoneal injection was 100 μl. The recommended dose ratio of dexrazoxane to doxorubicin was 10 to 1. In the following examples, 5 mg/kg of doxorubicin was used which correspond to 50 mg/kg of dexrazoxane. The FDA recommends that dexrazoxane be injected within 0.5 hour prior to doxorubicin infusion in individuals. This was followed in the same manner when applying to the test animals.
# To induce cardiotoxicity in the mouse, four weekly intraperitoneal injections of doxorubicin at 5 mg/kg were administered. After one dose of doxorubicin at 5-6 mg/kg in a mouse, the level of exposure has been estimated to be similar to that of a human individual being given a standard dose of doxorubicin at approximately 60 mg/m^2. Previous studies have shown that mice injected with doxorubicin once a week at 5 mg/kg for four weeks developed cardiotoxicity, as evidenced by decreased ventricular ejection fraction, cardiomyocyte apoptosis, histopathological changes consistent with doxorubicin-induced myocardial damage, and increased mortality rate, compared with the control group.
# The hearts of mice were collected after sacrifice and fixed in 4% paraformaldehyde overnight, followed by paraffin embedding. Afterwards the hearts were cut into 4 μm thick slices. Sections were deparaffinized and rehydrated using sequential immersion in 100% alcohol, 95% alcohol and 70% alcohol for 15 minutes each. […]
# C57BL/6J male mice [2] = assay: Noninvasive blood pressure in mouse doxorubicin cardiotoxicity model; format: in vivo; conditions: for Day 28 DBP / Day 28 SBP: after doxorubicin 5 mg/kg intraperitoneal once weekly for four weeks (Dox + groups); for Day 28 DBP / Day 28 SBP / Day 0 DBP / Day 0 SBP: n = 4 per group; for Day 0 DBP / Day 0 SBP: before doxorubicin administration
# From the text: Recombinant human GDF15/MIC-1 protein (CHO-derived) was purchased from PeproTech Inc. (Cranbury, USA) and described in Example 1. […] PubChem identifier number 71384) were purchased from Abcam (Cambridge, UK). For in vitro studies, solid lyophilized powder of these two drugs were solubilized at the recommended concentrations in sterile water, and separate aliquots were made and frozen until thawing prior to addition to cell cultures. […] The recommended dose ratio of dexrazoxane to doxorubicin was 10 to 1. In the following examples, 5 mg/kg of doxorubicin was used which correspond to 50 mg/kg of dexrazoxane. The FDA recommends that dexrazoxane be injected within 0.5 hour prior to doxorubicin infusion in individuals. This was followed in the same manner when applying to the test animals. Ten- to twelve-week old C57BL/6J male mice were purchased from the Laboratory Animal Services Centre of CUHK. They were maintained in specific pathogen-free facility of the CUHK Laboratory Animal Services Centre Research Unit at Prince of Wales Hospital with free access to food and water and maintained in a light/night cycle of 12 hours/12 hours. All mice were fed a standard diet. Blood pressure of animals was measured using the noninvasive CODA® High Throughput System (Torrington, USA) in accordance with the manufacturer's instructions. Measurement platform was prewarmed and maintained at 33-35° C. O-cuffs and VPR-cuffs were used as instructed. Blood pressure of each mouse was measured for at least three cycles. Mice were released and returned to their cages immediately after measurement. Blood pressure was measured twice, once at the beginning of the experiment and once before sacrifice. To induce cardiotoxicity in the mouse, four weekly intraperitoneal injections of doxorubicin at 5 mg/kg were administered. After one dose of doxorubicin at 5-6 mg/kg in a mouse, the level of exposure has been estimated to be similar to that of a human individual being given a standard dose of doxorubicin at approximately 60 mg/m^2.
# hESC-CMs = assay: PrestoBlue cell viability analysis of hESC-CMs exposed to doxorubicin; format: cell-based, human; conditions: for optimal timing of pretreatment prior to doxorubicin: 1, 6, 24, 48, 72 h tested, doxorubicin 1.5 μM for 24 h
# Experimental: Viability of hESC-CMs was assessed using PrestoBlue (Thermo Fisher Scientific, USA). hESC-CMs in suspension were seeded at a density of 15,000 cells per well on 96-well flat-bottom microtiter plates and cultured at 37° C. in a humidified 5% CO2 atmosphere. The B27+/RPMI-1640 media with Y27632 were changed to B27+/RPMI−1640 media within 24 hours. Cells were then incubated in B27+/RPMI−1640 without supplement for at least 72 hours. PrestoBlue was diluted in a ratio of 1:10 in B27+/RPMI−1640 media and incubated with the cells at 37° C. for 30 minutes. After incubation, fluorescence reading was performed at excitation and emission wavelengths of 530 nm and 590 nm, respectively, using the Synergy HTX Multi-Mode microplate reader (Agilent Technologies, Inc., USA).
# Six logarithmic concentrations of GDF15 were initially used to identify the optimal dose for cytoprotection: 0.1 ng/ml, 1 ng/ml, 10 ng/ml, 100 ng/ml, 1,000 ng/ml (1 ug/ml), and 10,000 ng/ml (10 ug/ml). Further refinement of dose response was subsequently achieved using concentrations at 100 ng/ml, 200 ng/ml, and 300 ng/ml. The optimal time point (see below) of 24 hours was selected. Doxorubicin at 1.5 μM was used to induce cytotoxicity.
# hESC-CMs were pretreated with GDF15 for 1 hour, 6 hours, 24 hours, 48 hours, or 72 hours (“pretreatment”), followed by exposure to 1.5 μM doxorubicin alone for a further 24 hours. A second set of experiments involved pretreatment of hESC-CMs for 1 hour, 6 hours, 24 hours, 48 hours, or 72 hours, followed by removal of the media containing GDF15, and coincubation of hESC-CMs with both GDF15 and doxorubicin for another 24h (“pre/co-treatment”). The efficacy of GDF15 in protecting cardiomyocytes was assessed by cell viability analysis using PrestoBlue.
Compound,"myocardial histopathology (hematoxylin and eosin) (C57BL/6J male mice [1]; mouse, in vivo)",Day 28 DBP (C57BL/6J male mice [2]) [mmHg],Day 28 SBP (C57BL/6J male mice [2]) [mmHg],Day 0 DBP (C57BL/6J male mice [2]) [mmHg],Day 0 SBP (C57BL/6J male mice [2]) [mmHg],"myocardial histopathology (hematoxylin and eosin) (C57BL/6J male mice [1]; mice, pretreatment before doxorubicin)","cytoprotective effects after priming, pre/co-treatment (hESC-CMs; hESC-CMs primed with GDF15 for 24 hours, then coincubation with GDF15 and doxorubicin 24 h)",optimal timing of pretreatment prior to doxorubicin (hESC-CMs; hESC-CMs) [h],"optimal timing of pretreatment prior to doxorubicin (hESC-CMs; hESC-CMs, listed as recombinant GDF15)","cell viability (positive PrestoBlue staining) (hESC-CMs; hESC-CMs, GDF15 pretreatment for 24 hours before doxorubicin 1.5 μM)","cell viability compared with dexrazoxane (hESC-CMs; hESC-CMs, pretreatment in the presence of Dox)","systolic and diastolic blood pressure (C57BL/6J male mice [2]; GDF15 5 mg/kg intraperitoneal before doxorubicin, compared with doxorubicin only)"
"COc1cccc2c1C(=O)c1c(O)c3c(c(O)c1C2=O)C[C@@](O)(C(=O)CO)C[C@@H]3OC1C[C@H](N)[C@H](O)[C@H](C)O1.Cl (stereo partly drawn) [Dox, (8S,10S)-10-[(3-Amino-2,3,6-trideoxy-L-lyxohexopyranosyl)oxy]-7,8,9,10-tetrahydro-6,8,11-trihydroxy-8-(hydroxyacetyl)-1-methoxynaphthacene-5,12-dione hydrochloride, reference compound]","myocardial structural disarray, and microfibrillar disruption and disorganization",119 ± 7,146 ± 7,87 ± 15,116 ± 13,,,,,,,
"GDF15: commercially available recombinant human GDF-15 protein (PeproTech 120-28C), CHO cell-derived, SEQ ID NO: 1",,88 ± 5,121 ± 5,83 ± 17,117 ± 12,similarly improved,cytoprotective effects persisted,24,approximately 24 hours,increased cell viability,slightly higher percentage of cell viability,significantly lowered
